Values of other authors in US9511027B1, “Calcium supplement having enhanced absorption” (Delavau L.L.C., priority 2006, dated 2016).

[Ca+2] [calcium]
percent absorption (9 to 18 year olds, Wastney et al. 1996): 38%
elemental calcium absorbed (adults, basis of the AIs of 1,000 mg and 1,200 mg, Heaney et al. 1988): about 30%
